Laboratory results reported in article PMC4450297, “Screening Active Compounds from Garcinia Species Native to China Reveals Novel Compounds Targeting the STAT/JAK Signaling Pathway” (BioMed Research International, 2015).

Each molecule was assayed on M059J (assay: Cell panel screen (CellTiter-Glo)). Settings: M059J (Brain), 20 micromolar, 72 hrs.
Format: cell-based, human
Protocol: (§1) All cells were obtained from the cell bank of the American Type Culture Collection (ATCC) and cultured in the supplier's recommended media supplemented with 10% FBS. The cell panel screen was measured using the CellTiter-Glo assay (Promega, Madison, WI) following a standard protocol. Briefly, cancer cells were seeded in 96-well plates and cultured overnight at 37°C with or without 5% CO2 in an incubator. Each compound was dissolved with limited DMSO and diluted to a certain concentration with culture medium and then added to the corresponding well of the cell plate. The final concentration of compound was 20 μM. The control cells (without treatment) received the same amount of DMSO and were incubated under the same conditions. After 72 h cultivation, 100 μL of the CellTiter-Glo reagent was added directly to each well for 10-minute incubation. The plate was then read on a FlexStation 3 microplate luminometer (Molecular Devices, USA) to monitor the luminescence signal generated by the luciferase-catalyzed reaction of luciferin and ATP. The percent of growth inhibition was calculated using the following formula: (untreated cells − treated cells)/(untreated cells − background without cells) ∗ 100.
For `COc1cc(O)c2c(=O)c3ccc(O)c(O)c3oc2c1CC=C(C)C` [gl-17], the “Percent Inhibition” value was 91%.

What follows are molecules tested on NCI-H2405 (assay: Cell panel screen (CellTiter-Glo)). Settings: NCI-H2405 (Lung), 20 micromolar, 72 hrs.
Format: cell-based, human
Protocol: as §1
In the case of `COc1cc(O)c2c(=O)c3ccc(O)c(O)c3oc2c1CC=C(C)C` [gl-17], the “Percent Inhibition” value is reported as 19%.

These molecules were tested on NCI-H2347 (assay: Cell panel screen (CellTiter-Glo)). Settings: NCI-H2347 (Lung), 20 micromolar, 72 hrs.
Format: cell-based, human
Protocol: as §1
`COc1cc(O)c2c(=O)c3ccc(O)c(O)c3oc2c1CC=C(C)C` [gl-17] was tested, and the “Percent Inhibition” value was 86%.

What follows are molecules tested on T47D (assay: Cell panel screen (CellTiter-Glo)). Settings: T47D (Breast), 20 micromolar, 72 hrs.
Format: cell-based, human
Protocol: as §1
`COc1cc(O)c2c(=O)c3ccc(O)c(O)c3oc2c1CC=C(C)C` [gl-17] was tested, and the “Percent Inhibition” value was 72%.

Each molecule was assayed on HPAF-II (assay: Cell panel screen (CellTiter-Glo)). Settings: HPAF-II (Pancreas), 20 micromolar, 72 hrs.
Format: cell-based, human
Protocol: as §1
With `COc1cc(O)c2c(=O)c3ccc(O)c(O)c3oc2c1CC=C(C)C` [gl-17] the “Percent Inhibition” value was 89%.

Each molecule was assayed on C8166 (assay: Cell panel screen (CellTiter-Glo)). Settings: C8166 (Leukemia), 20 micromolar, 72 hrs.
Format: cell-based, human
Protocol: as §1
In the case of `COc1cc(O)c2c(=O)c3ccc(O)c(O)c3oc2c1CC=C(C)C` [gl-17], the “Percent Inhibition” value is reported as 90%.

These molecules were tested on BT-474 (assay: Cell panel screen (CellTiter-Glo)). Settings: BT-474 (Breast), 20 micromolar, 72 hrs.
Format: cell-based, human
Protocol: as §1
`COc1cc(O)c2c(=O)c3ccc(O)c(O)c3oc2c1CC=C(C)C` [gl-17] was tested, and the “Percent Inhibition” value was 89%.

What follows are molecules tested on HT-1197 (assay: Cell panel screen (CellTiter-Glo)). Settings: HT-1197 (Urinary bladder), 20 micromolar, 72 hrs.
Format: cell-based, human
Protocol: as §1
In the case of `COc1cc(O)c2c(=O)c3ccc(O)c(O)c3oc2c1CC=C(C)C` [gl-17], the “Percent Inhibition” value is reported as 95%.

These molecules were tested on NCI-H28 (assay: Cell panel screen (CellTiter-Glo)). Settings: NCI-H28 (Lung), 20 micromolar, 72 hrs.
Format: cell-based, human
Protocol: as §1
`COc1cc(O)c2c(=O)c3ccc(O)c(O)c3oc2c1CC=C(C)C` [gl-17] was tested, and the “Percent Inhibition” value was 76%.

Each molecule was assayed on HCC1599 (assay: Cell panel screen (CellTiter-Glo)). Settings: HCC1599 (Breast), 20 micromolar, 72 hrs.
Format: cell-based, human
Protocol: as §1
With `COc1cc(O)c2c(=O)c3ccc(O)c(O)c3oc2c1CC=C(C)C` [gl-17] the “Percent Inhibition” value was 93%.

Each molecule was assayed on MSTO-211-H (assay: Cell panel screen (CellTiter-Glo)). Settings: MSTO-211-H (Lung), 20 micromolar, 72 hrs.
Format: cell-based, human
Protocol: as §1
With `COc1cc(O)c2c(=O)c3ccc(O)c(O)c3oc2c1CC=C(C)C` [gl-17] the “Percent Inhibition” value was 79%.

These molecules were tested on HCC1395 (assay: Cell panel screen (CellTiter-Glo)). Settings: HCC1395 (Breast), 20 micromolar, 72 hrs.
Format: cell-based, human
Protocol: as §1
With `COc1cc(O)c2c(=O)c3ccc(O)c(O)c3oc2c1CC=C(C)C` [gl-17] the “Percent Inhibition” value was 89%.

Each molecule was assayed on Bel-7402 (assay: Cell panel screen (CellTiter-Glo)). Settings: Bel-7402 (Liver), 20 micromolar, 72 hrs.
Format: cell-based, human
Protocol: as §1
For `COc1cc(O)c2c(=O)c3ccc(O)c(O)c3oc2c1CC=C(C)C` [gl-17], the “Percent Inhibition” value was 60%.

What follows are molecules tested on HCC1937 (assay: Cell panel screen (CellTiter-Glo)). Settings: HCC1937 (Breast), 20 micromolar, 72 hrs.
Format: cell-based, human
Protocol: as §1
With `COc1cc(O)c2c(=O)c3ccc(O)c(O)c3oc2c1CC=C(C)C` [gl-17] the “Percent Inhibition” value was 83%.

The molecules below were run on BT-549 (assay: Cell panel screen (CellTiter-Glo)). Settings: BT-549 (Breast), 20 micromolar, 72 hrs.
Format: cell-based, human
Protocol: as §1
For `COc1cc(O)c2c(=O)c3ccc(O)c(O)c3oc2c1CC=C(C)C` [gl-17], the “Percent Inhibition” value was 65%.

The molecules below were run on TCCSUP (assay: Cell panel screen (CellTiter-Glo)). Settings: TCCSUP (Urinary bladder), 20 micromolar, 72 hrs.
Format: cell-based, human
Protocol: as §1
With `COc1cc(O)c2c(=O)c3ccc(O)c(O)c3oc2c1CC=C(C)C` [gl-17] the “Percent Inhibition” value was 83%.

The molecules below were run on NCI-H1770 (assay: Cell panel screen (CellTiter-Glo)). Settings: NCI-H1770 (Lung), 20 micromolar, 72 hrs.
Format: cell-based, human
Protocol: as §1
With `COc1cc(O)c2c(=O)c3ccc(O)c(O)c3oc2c1CC=C(C)C` [gl-17] the “Percent Inhibition” value was 40%.

The molecules below were run on ChaGo-K-1 (assay: Cell panel screen (CellTiter-Glo)). Settings: ChaGo-K-1 (Lung), 20 micromolar, 72 hrs.
Format: cell-based, human
Protocol: as §1
With `COc1cc(O)c2c(=O)c3ccc(O)c(O)c3oc2c1CC=C(C)C` [gl-17] the “Percent Inhibition” value was 87%.

Each molecule was assayed on Panc 03.27 (assay: Cell panel screen (CellTiter-Glo)). Settings: Panc 03.27 (Pancreas), 20 micromolar, 72 hrs.
Format: cell-based, human
Protocol: as §1
For `COc1cc(O)c2c(=O)c3ccc(O)c(O)c3oc2c1CC=C(C)C` [gl-17], the “Percent Inhibition” value was 84%.

Each molecule was assayed on C3A (assay: Cell panel screen (CellTiter-Glo)). Settings: C3A (Liver), 20 micromolar, 72 hrs.
Format: cell-based, human
Protocol: as §1
For `COc1cc(O)c2c(=O)c3ccc(O)c(O)c3oc2c1CC=C(C)C` [gl-17], the “Percent Inhibition” value was 89%.

These molecules were tested on RL95 (assay: Cell panel screen (CellTiter-Glo)). Settings: RL95 (Uterus), 20 micromolar, 72 hrs.
Format: cell-based, human
Protocol: as §1
In the case of `COc1cc(O)c2c(=O)c3ccc(O)c(O)c3oc2c1CC=C(C)C` [gl-17], the “Percent Inhibition” value is reported as 87%.

The molecules below were run on CCF-STTG1 (assay: Cell panel screen (CellTiter-Glo)). Settings: CCF-STTG1 (Brain), 20 micromolar, 72 hrs.
Format: cell-based, human
Protocol: as §1
For `COc1cc(O)c2c(=O)c3ccc(O)c(O)c3oc2c1CC=C(C)C` [gl-17], the “Percent Inhibition” value was 74%.

Each molecule was assayed on NCI-H1694 (assay: Cell panel screen (CellTiter-Glo)). Settings: NCI-H1694 (Lung), 20 micromolar, 72 hrs.
Format: cell-based, human
Protocol: as §1
`COc1cc(O)c2c(=O)c3ccc(O)c(O)c3oc2c1CC=C(C)C` [gl-17] was tested, and the “Percent Inhibition” value was 98%.

The molecules below were run on Colo 205 (assay: Cell panel screen (CellTiter-Glo)). Settings: Colo 205, 20 micromolar, 72 hrs.
Format: cell-based, human
Protocol: as §1
In the case of `COc1cc(O)c2c(=O)c3ccc(O)c(O)c3oc2c1CC=C(C)C` [gl-17], the “Percent Inhibition” value is reported as 97%.

Each molecule was assayed on T98G (assay: Cell panel screen (CellTiter-Glo)). Settings: T98G (Brain), 20 micromolar, 72 hrs.
Format: cell-based, human
Protocol: as §1
With `COc1cc(O)c2c(=O)c3ccc(O)c(O)c3oc2c1CC=C(C)C` [gl-17] the “Percent Inhibition” value was 85%.

What follows are molecules tested on NCI-H524 (assay: Cell panel screen (CellTiter-Glo)). Settings: NCI-H524 (Lung), 20 micromolar, 72 hrs.
Format: cell-based, human
Protocol: as §1
With `COc1cc(O)c2c(=O)c3ccc(O)c(O)c3oc2c1CC=C(C)C` [gl-17] the “Percent Inhibition” value was 98%.

What follows are molecules tested on HEC-1-A (assay: Cell panel screen (CellTiter-Glo)). Settings: HEC-1-A (Uterus), 20 micromolar, 72 hrs.
Format: cell-based, human
Protocol: as §1
For `COc1cc(O)c2c(=O)c3ccc(O)c(O)c3oc2c1CC=C(C)C` [gl-17], the “Percent Inhibition” value was 76%.

What follows are molecules tested on A704 (assay: Cell panel screen (CellTiter-Glo)). Settings: A704 (Kidney), 20 micromolar, 72 hrs.
Format: cell-based, human
Protocol: as §1
In the case of `COc1cc(O)c2c(=O)c3ccc(O)c(O)c3oc2c1CC=C(C)C` [gl-17], the “Percent Inhibition” value is reported as 42%.

The molecules below were run on A498 (assay: Cell panel screen (CellTiter-Glo)). Settings: A498 (listed under Lung), 20 micromolar, 72 hrs.
Format: cell-based, human
Protocol: as §1
With `COc1cc(O)c2c(=O)c3ccc(O)c(O)c3oc2c1CC=C(C)C` [gl-17] the “Percent Inhibition” value was 75%.

Each molecule was assayed on ZR-75-30 (assay: Cell panel screen (CellTiter-Glo)). Settings: ZR-75-30 (Breast), 20 micromolar, 72 hrs.
Format: cell-based, human
Protocol: as §1
For `COc1cc(O)c2c(=O)c3ccc(O)c(O)c3oc2c1CC=C(C)C` [gl-17], the “Percent Inhibition” value was 98%.

The molecules below were run on HGC-27 (assay: Cell panel screen (CellTiter-Glo)). Settings: HGC-27 (Stomach), 20 micromolar, 72 hrs.
Format: cell-based, human
Protocol: as §1
In the case of `COc1cc(O)c2c(=O)c3ccc(O)c(O)c3oc2c1CC=C(C)C` [gl-17], the “Percent Inhibition” value is reported as 92%.

What follows are molecules tested on HCC1569 (assay: Cell panel screen (CellTiter-Glo)). Settings: HCC1569 (Breast), 20 micromolar, 72 hrs.
Format: cell-based, human
Protocol: as §1
For `COc1cc(O)c2c(=O)c3ccc(O)c(O)c3oc2c1CC=C(C)C` [gl-17], the “Percent Inhibition” value was 74%.

Each molecule was assayed on SW13 (assay: Cell panel screen (CellTiter-Glo)). Settings: SW13 (Adrenal gland), 20 micromolar, 72 hrs.
Format: cell-based, human
Protocol: as §1
For `COc1cc(O)c2c(=O)c3ccc(O)c(O)c3oc2c1CC=C(C)C` [gl-17], the “Percent Inhibition” value was 85%.

The molecules below were run on NCI-H1623 (assay: Cell panel screen (CellTiter-Glo)). Settings: NCI-H1623 (Lung), 20 micromolar, 72 hrs.
Format: cell-based, human
Protocol: as §1
In the case of `COc1cc(O)c2c(=O)c3ccc(O)c(O)c3oc2c1CC=C(C)C` [gl-17], the “Percent Inhibition” value is reported as 41%.

Each molecule was assayed on CW-2 (assay: Cell panel screen (CellTiter-Glo)). Settings: CW-2 (Colon), 20 micromolar, 72 hrs.
Format: cell-based, human
Protocol: as §1
For `COc1cc(O)c2c(=O)c3ccc(O)c(O)c3oc2c1CC=C(C)C` [gl-17], the “Percent Inhibition” value was 96%.

What follows are molecules tested on J82 (assay: Cell panel screen (CellTiter-Glo)). Settings: J82 (Urinary bladder), 20 micromolar, 72 hrs.
Format: cell-based, human
Protocol: as §1
`COc1cc(O)c2c(=O)c3ccc(O)c(O)c3oc2c1CC=C(C)C` [gl-17] was tested, and the “Percent Inhibition” value was 88%.
